According to patent publication US20260207699A1, “PHARMACEUTICAL COMPOSITION OF KAPPA OPIOID RECEPTOR AGONIST, PREPARATION METHOD THEREFOR, AND USE THEREOF” (YICHANG HUMANWELL PHARMACEUTICAL CO., LTD., priority 2022, published 2026):
Counter-ions that a name gives are not always drawn.

Experiments:
[1] = Stability of salts of compound of formula (II), high temperature test (40° C.); type: physicochemical; settings: for stability at high temperature of 40° C. and under light of 4500 Lux: up to 30 days
Experimental: (§1) Samples of acetate salt, citrate salt, and phosphate salt of the compound of formula (II) were placed for investigation respectively, and the investigation conditions were high temperature test (40° C.) and light (4500 Lux). The investigation period was 5 days, 10 days and 30 days.

[2] = Stability of salts of compound of formula (II), light (4500 Lux); type: physicochemical
Experimental: as §1

[3] = test system: chloroquine-induced pruritus; assay: Chloroquine-induced pruritus model of ICR mice; type: in vivo; settings: 3 mg/kg subcutaneously
Experimental: (§2) Test sample: Prescription 5 of Example 9 of the present application was used as the test sample.
ICR mice, SPF grade, male, weighing 30 g-40 g, raised in a constant temperature environment, temperature (20±2) ° C., humidity 40%-70%; the raising environment was with a light rhythm 12 h:12 h (6:00-18:00), free feeding and water, and adaptive feeding for 1 week.
The mice were shaved on the back of the neck. After shaving, the animals were weighed, and the mice were randomly divided into 5 groups of 10 animals per group according to their body weight, which were the vehicle control group; ICI204448 (CAS No.: 121264-04-8, positive control drug) control group (3 mg/kg); Test group 1 (0.1 mg/kg); Test group 2 (0.5 mg/kg); and Test group 3 (1.5 mg/kg). After the corresponding drugs were administered subcutaneously according to groups, 400 μg of chloroquine, a pruritus model inducer, was intradermally injected into the shaved area of the back of the neck of mice. Following intradermal injection of chloroquine, mice were individually placed in transparent plexiglass boxes and the number of scratches over 30 min was counted.

mechanical allodynia = assay: Rat postoperative analgesic model, mechanical allodynia (paw withdrawal threshold); type: in vivo, Sprague-Dawley rats; settings: 3 mg/kg
Experimental: as §2
Sprague-Dawley rats, SPF grade, male, weighing 200 g-220 g, raised in a constant temperature environment, temperature (20±2) ° C., humidity 40%-70%; the raising environment was with a light rhythm 12 h:12 h (6:00-18:00), free feeding and water, and adaptive feeding for 1 week.
Animals were anesthetized with Zoletil (6 mg/kg)+xylazine ([…], i.p.). The toes of the animals were squeezed to confirm that the animals were fully anesthetized prior to surgery. The skin of the surgical area on the plantar site of the left hind foot was disinfected three times using iodophor and 70% ethanol. Wait until the skin was dry, to start the surgery. An incision about 1 cm long was made longitudinally toward the toe from the heel position. After incising the skin, the flexor digitorum brevis was lifted and a longitudinal blunt injury was caused. After pressing to stop bleeding, the wound was sutured. After surgery, the animals were placed on electric blankets, and returned to the cage when the animals were fully awake (free to move).
Twenty-four hours after surgery, the baseline test of mechanical allodynia was performed on rats. […] At the same time, 10 rats of the same batch were taken as the control of the normal group. Mechanical allodynia tests were performed at 0.5 h, 1 h, and 1.5 h after administration, respectively.
The rats were individually placed in a plexiglass box with a grid at the bottom to ensure that the rat feet could be tested. Rats would acclimatize for 15 minutes prior to the test. After completion of the acclimatizing, test fiber (Touch-Test Sensory Evaluator) was used to test at the central plantar site of the left hind foot of the rats. In the test, the test fiber was pressed vertically against the skin and force was applied to bend the fiber for 6-8 seconds, with 5 seconds apart between each test. In the test, an animal's rapid withdrawal of the foot was noted as a pain response.

[4] = Conventional injection, sterilization according to conventional requirements; type: physicochemical; settings: prepared into a conventional injection
Experimental: After the cooled pharmaceutical solution is centrifuged at 3000 rpm to 10000 rpm, the precipitate is collected and detected by mass spectrometry (mass spectrometry conditions: chromatographic column: ACQUITY UPLC BEH C8, 50 mm×2.1 mm, 1.7 μm (20180306-C8-08); mobile phase A: 0.1% formic acid/water; mobile phase B: 0.1% formic acid/acetonitrile; flow rate: 0.2 ml/min; column temperature: 30° C.; detector wavelength: UV-210 nm; QDa; cone voltage: positive scan 10 volts, negative scan 5 volts; capillary voltage: plus 1.5 kV, minus 0.5 kV). Based on the detected MS values, it is speculated that the white flocculent precipitate is a degradation impurity as shown in the following formula: […]

Row | Structure (SMILES) | HPLC purity (%) ([1]; 0 days) | HPLC purity (%) ([1]; 40° C., 5 days) | HPLC purity (%) ([1]; 40° C., 10 days) | HPLC purity (%) ([1]; 40° C., 30 days) | stability at high temperature of 40° C. and under light of 4500 Lux [1] | HPLC purity (%) ([2]; 5 days) | HPLC purity (%) ([2]; 10 days) | HPLC purity (%) ([2]; 30 days) | Inhibition rate ([3]; scratches over 30 min) | Number of scratches (mean ± standard error) ([3]; scratches over 30 min after 400 μg chloroquine intradermal) | Pain inhibition rate (mechanical allodynia; 0.5 hours after administration) | Pain inhibition rate (mechanical allodynia; 1 hours after administration) | Pain inhibition rate (mechanical allodynia; 1.5 hours after administration) | appearance after sterilization when cooled to room temperature [4]
1 | CC(C)C[C@@H](NC(=O)[C@@H](Cc1ccccc1)NC(=O)[C@H](N)[C@H](C)c1ccccc1)C(=O)N[C@H](CCCCN)C(=O)N1CCC(N)(C(=O)O)C1 (stereo partly drawn) [Acetate salt (1:1)] | 97.9% | 97.7% | 97.5% | 97.1% | better stability | 97.9% | 97.8% | 97.6% |  |  |  |  |  | 
2 | CC(C)C[C@@H](NC(=O)[C@@H](Cc1ccccc1)NC(=O)[C@H](N)[C@H](C)c1ccccc1)C(=O)N[C@H](CCCCN)C(=O)N1CCC(N)(C(=O)O)C1 (stereo partly drawn) [Citrate salt (1:1)] | 96.8% | 95.7% | 94.6% | 93.5% | degraded in different degrees | 96.2% | 95.5% | 94.7% |  |  |  |  |  | 
3 | CN(C(=O)Cc1ccc(Cl)c(Cl)c1)C(CN1CCCC1)c1cccc(OCC(=O)O)c1 (stereo not drawn) [ICI204448] |  |  |  |  |  |  |  |  | 97.4% | 7.3 ± 2.43 |  |  |  | 
4 | CN1CC[C@]23c4c5ccc(O)c4O[C@H]2[C@@H](O)C=C[C@H]3[C@H]1C5 [Morphine, morphine] |  |  |  |  |  |  |  |  |  |  | 122.5% | 84.2% | 27.9% | 
5 | CC(C)C[C@@H](NC(=O)[C@@H](Cc1ccccc1)NC(=O)[C@H](N)[C@H](C)c1ccccc1)C(=O)N[C@H](CCCCN)C(=O)N1CCC(N)(C(=O)O)C1 (stereo partly drawn) [Phosphate salt (1:1)] | 96.5% | 95.6% | 94.3% | 92.3% | degraded in different degrees | 96.2% | 95.1% | 94.2% |  |  |  |  |  | 
6 | CC(C)C[C@@H](NC(=O)[C@@H](Cc1ccccc1)NC(=O)[C@H](N)[C@H](C)c1ccccc1)C(=O)N[C@H](CCCCN)C(=O)N1CCC(N)(C(=O)O)C1 (stereo partly drawn) [compound (II)] |  |  |  |  |  |  |  |  |  |  |  |  |  | a flocculent precipitate is separated out
